Measurements taken from ChEMBL document CHEMBL1201862, “PubChem BioAssay data set” (2004).
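Test compounds were applied to cells in 96-well plates for 48 hours at 5 doses. GI50: concentration for 50% inhibition of growth.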 Active and inactive are the calls of the source. Rule as the data show it: active = GI50 up to about 1.1 µM and inactive = higher.

What was measured:
Assay in all cases: DTP human tumour cell line panel, 48 h
SF-539 = tested on: SF-539
HCT-15 = tested on: HCT-15
OVCAR-8 = tested on: OVCAR-8
SR = tested on: SR
HT-29 = tested on: HT-29
SK-MEL-2 = tested on: SK-MEL-2
SW-620 = tested on: SW-620
SNB-75 = tested on: SNB-75
K562 = tested on: K562
EKVX = tested on: EKVX
SK-MEL-28 = tested on: SK-MEL-28
A498 = tested on: A498
UO-31 = tested on: UO-31
HCT-116 = tested on: HCT-116
HOP-92 = tested on: HOP-92
SF-268 = tested on: SF-268
NCI-H460 = tested on: NCI-H460
SK-OV-3 = tested on: SK-OV-3
MDA-MB-231 = tested on: MDA-MB-231
OVCAR-5 = tested on: OVCAR-5

SMILES | GI50 (SF-539) | GI50 (HCT-15) [µM] | GI50 (OVCAR-8) | GI50 (SR) | GI50 (HT-29) | GI50 (SK-MEL-2) | GI50 (SW-620) | GI50 (SNB-75) | GI50 (K562) | GI50 (EKVX) | GI50 (SK-MEL-28) | GI50 (A498) | GI50 (UO-31) | GI50 (HCT-116) | GI50 (HOP-92) | GI50 (SF-268) | GI50 (NCI-H460) | GI50 (SK-OV-3) | GI50 (MDA-MB-231) | GI50 (OVCAR-5)
C/C(=N\NS(=O)(=O)c1ccc(C)cc1)c1c(O)cc(C)oc1=O | > 100 µM (inactive) | > 100 | > 100 µM (inactive) | > 100 µM (inactive) | > 100 µM (inactive) | > 100 µM (inactive) | > 100 µM (inactive) | > 100 µM (inactive) | > 100 µM (inactive) | > 100 µM (inactive) | > 100 µM (inactive) | > 100 µM (inactive) | > 100 µM (inactive) | > 100 µM (inactive) | > 100 µM (inactive) | > 100 µM (inactive) | > 100 µM (inactive) | > 100 µM (inactive) | – | –
NC(=O)OCc1c(-c2ccccc2)nn(-c2ccccc2)c1COC(N)=O | > 100 µM (inactive) | > 100 | > 100 µM (inactive) | – | > 100 µM (inactive) | > 100 µM (inactive) | > 100 µM (inactive) | 45.7 µM (inactive) | – | – | > 100 µM (inactive) | – | > 100 µM (inactive) | > 100 µM (inactive) | > 100 µM (inactive) | > 100 µM (inactive) | – | – | > 100 µM (inactive) | > 100 µM (inactive)
N#CCN1C(=O)c2cccc3cc([N+](=O)[O-])cc(c23)C1=O | 33 µM (inactive) | 28 | 38.9 µM (inactive) | 5.69 µM (inactive) | 41.8 µM (inactive) | 0.745 µM (active) | 36.5 µM (inactive) | 38 µM (inactive) | 27.5 µM (inactive) | 74.8 µM (inactive) | 35.2 µM (inactive) | 47.1 µM (inactive) | 23.4 µM (inactive) | 32.2 µM (inactive) | 99.1 µM (inactive) | 52 µM (inactive) | 29 µM (inactive) | > 100 µM (inactive) | – | 31.3 µM (inactive)
CC(=O)NC(C)c1ccc(/N=N/N2CCCC2)cc1 (stereo not given) | > 100 µM (inactive) | > 100 | > 100 µM (inactive) | – | > 100 µM (inactive) | > 100 µM (inactive) | > 100 µM (inactive) | > 100 µM (inactive) | – | > 100 µM (inactive) | > 100 µM (inactive) | > 100 µM (inactive) | > 100 µM (inactive) | > 100 µM (inactive) | > 100 µM (inactive) | > 100 µM (inactive) | – | > 100 µM (inactive) | > 100 µM (inactive) | > 100 µM (inactive)
C#CCNC(=O)NCCCCC(NC(C)=O)C(=O)NCc1ccccc1 (stereo not given) | > 100 µM (inactive) | > 100 | > 100 µM (inactive) | > 100 µM (inactive) | > 100 µM (inactive) | – | > 100 µM (inactive) | > 100 µM (inactive) | > 100 µM (inactive) | > 100 µM (inactive) | > 100 µM (inactive) | > 100 µM (inactive) | > 100 µM (inactive) | > 100 µM (inactive) | > 100 µM (inactive) | > 100 µM (inactive) | > 100 µM (inactive) | > 100 µM (inactive) | – | > 100 µM (inactive)
COC(=O)[C@](NC(=O)OCc1ccccc1)([C@@H](C)Sc1ccc(C)cc1)C(F)(F)F | 69.3 µM (inactive) | 27.5 | 19.5 µM (inactive) | 31.1 µM (inactive) | 34.7 µM (inactive) | > 100 µM (inactive) | 27.2 µM (inactive) | – | 23.6 µM (inactive) | 57.9 µM (inactive) | 91.8 µM (inactive) | > 100 µM (inactive) | 51.9 µM (inactive) | 35.4 µM (inactive) | – | 38.4 µM (inactive) | 34.5 µM (inactive) | > 100 µM (inactive) | – | > 100 µM (inactive)
N#Cc1cc([N+](=O)[O-])ccc1NC(=O)C(=O)C(C(=O)c1ccc2ccccc2c1)C1OCc2ccccc21 (stereo not given) | 1.82 µM (inactive) | 7.8 | 5.43 µM (inactive) | 2.88 µM (inactive) | 12.9 µM (inactive) | 10.9 µM (inactive) | 6.27 µM (inactive) | 4.23 µM (inactive) | 6.25 µM (inactive) | 16.4 µM (inactive) | 4.18 µM (inactive) | 5.56 µM (inactive) | 12.8 µM (inactive) | 5.01 µM (inactive) | 7.01 µM (inactive) | 4.11 µM (inactive) | 4.38 µM (inactive) | 24.8 µM (inactive) | – | 14.2 µM (inactive)
CN1CCC(SC2Cc3cc(Cl)ccc3Sc3ccccc32)CC1 (stereo not given) | 16.4 µM (inactive) | 15.7 | 17.3 µM (inactive) | 8.18 µM (inactive) | 4.24 µM (inactive) | – | 13.6 µM (inactive) | 8.79 µM (inactive) | 5.04 µM (inactive) | 18.5 µM (inactive) | 2.12 µM (inactive) | 16.1 µM (inactive) | 3.86 µM (inactive) | 10.4 µM (inactive) | 11.7 µM (inactive) | 11.8 µM (inactive) | 12.2 µM (inactive) | 15.8 µM (inactive) | – | 16.7 µM (inactive)
